{
  "source": "PubChem BioAssay (NCI)",
  "assay_in_all_cases": "NCI tumour cell line growth inhibition, 48 h",
  "key": {"SK-MEL-28 melanoma": {"tested_on": "SK-MEL-28 melanoma"}, "TK-10 renal": {"tested_on": "TK-10 renal"}, "OVCAR-3 ovarian": {"tested_on": "OVCAR-3 ovarian"}, "COLO 205 colon": {"tested_on": "COLO 205 colon"}, "SK-MEL-5 melanoma": {"tested_on": "SK-MEL-5 melanoma"}, "HCC-2998 colon": {"tested_on": "HCC-2998 colon"}, "HCT-15 colon": {"tested_on": "HCT-15 colon"}, "SN12C renal": {"tested_on": "SN12C renal"}, "KM12 colon": {"tested_on": "KM12 colon"}, "UO-31 renal": {"tested_on": "UO-31 renal"}, "UACC-257 melanoma": {"tested_on": "UACC-257 melanoma"}, "NCI-H460 lung": {"tested_on": "NCI-H460 lung"}, "SR leukemia": {"tested_on": "SR leukemia"}, "M19-MEL melanoma": {"tested_on": "M19-MEL melanoma"}, "HOP-18 NSCLC": {"tested_on": "HOP-18 NSCLC"}, "XF 498 CNS": {"tested_on": "XF 498 CNS"}, "SNB-78 CNS": {"tested_on": "SNB-78 CNS"}, "SF-539 CNS": {"tested_on": "SF-539 CNS"}, "LOX IMVI melanoma": {"tested_on": "LOX IMVI melanoma"}, "DMS 273 small cell lung": {"tested_on": "DMS 273 small cell lung"}},
  "note": "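In this assay, cells in 96-well plates receive the compound at five concentrations for 48 hours. Endpoints are linearly interpolated between the surrounding concentrations. TGI denotes the concentration required for complete inhibition of growth.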",
  "data": [
    {"smiles": "COC(=O)Cc1c(C2C(CC(=O)OC)c3ccccc3N2C2OC(CO)C(O)C(O)C2O)[nH]c2ccccc12", "note": "(stereo unspecified)", "values": [
      {"measurement": "TGI", "setting": "SK-MEL-28 melanoma", "value": "> 100", "unit": "µM"},
      {"measurement": "TGI", "setting": "TK-10 renal", "value": "> 100", "unit": "µM"},
      {"measurement": "TGI", "setting": "OVCAR-3 ovarian", "value": "> 100", "unit": "µM"},
      {"measurement": "TGI", "setting": "COLO 205 colon", "value": "> 100", "unit": "µM"},
      {"measurement": "TGI", "setting": "SK-MEL-5 melanoma", "value": "> 100", "unit": "µM"},
      {"measurement": "TGI", "setting": "HCC-2998 colon", "value": "> 100", "unit": "µM"},
      {"measurement": "TGI", "setting": "HCT-15 colon", "value": "> 100", "unit": "µM"},
      {"measurement": "TGI", "setting": "SN12C renal", "value": "> 100", "unit": "µM"},
      {"measurement": "TGI", "setting": "KM12 colon", "value": "> 100", "unit": "µM"},
      {"measurement": "TGI", "setting": "UO-31 renal", "value": "> 100", "unit": "µM"},
      {"measurement": "TGI", "setting": "UACC-257 melanoma", "value": "> 100", "unit": "µM"},
      {"measurement": "TGI", "setting": "NCI-H460 lung", "value": "> 100", "unit": "µM"},
      {"measurement": "TGI", "setting": "SR leukemia", "value": "> 100", "unit": "µM"}
    ]},
    {"smiles": "CC(C)(C)CI", "values": [
      {"measurement": "TGI", "setting": "SK-MEL-28 melanoma", "value": "> 100", "unit": "µM"},
      {"measurement": "TGI", "setting": "M19-MEL melanoma", "value": 53.9, "unit": "µM"},
      {"measurement": "TGI", "setting": "TK-10 renal", "value": "> 100", "unit": "µM"},
      {"measurement": "TGI", "setting": "HOP-18 NSCLC", "value": "> 10", "unit": "µM"},
      {"measurement": "TGI", "setting": "OVCAR-3 ovarian", "value": 35.4, "unit": "µM"},
      {"measurement": "TGI", "setting": "XF 498 CNS", "value": 34.9, "unit": "µM"},
      {"measurement": "TGI", "setting": "SNB-78 CNS", "value": 79.4, "unit": "µM"},
      {"measurement": "TGI", "setting": "SF-539 CNS", "value": "> 100", "unit": "µM"},
      {"measurement": "TGI", "setting": "LOX IMVI melanoma", "value": 33.4, "unit": "µM"},
      {"measurement": "TGI", "setting": "COLO 205 colon", "value": 47, "unit": "µM"},
      {"measurement": "TGI", "setting": "SK-MEL-5 melanoma", "value": 30.9, "unit": "µM"},
      {"measurement": "TGI", "setting": "DMS 273 small cell lung", "value": 34.8, "unit": "µM"},
      {"measurement": "TGI", "setting": "HCC-2998 colon", "value": 37.2, "unit": "µM"},
      {"measurement": "TGI", "setting": "HCT-15 colon", "value": "> 100", "unit": "µM"},
      {"measurement": "TGI", "setting": "SN12C renal", "value": 32.4, "unit": "µM"},
      {"measurement": "TGI", "setting": "KM12 colon", "value": 64.6, "unit": "µM"},
      {"measurement": "TGI", "setting": "UO-31 renal", "value": "> 10", "unit": "µM"},
      {"measurement": "TGI", "setting": "UACC-257 melanoma", "value": 51.6, "unit": "µM"},
      {"measurement": "TGI", "setting": "NCI-H460 lung", "value": 81.2, "unit": "µM"},
      {"measurement": "TGI", "setting": "SR leukemia", "value": 76.7, "unit": "µM"}
    ]},
    {"smiles": "COc1ccc(-c2c3c(nc4nc(SCC(=O)c5ccc(Br)cc5)nc(N)c24)CCCC3)cc1OC", "values": [
      {"measurement": "TGI", "setting": "SK-MEL-28 melanoma", "value": "> 100", "unit": "µM"},
      {"measurement": "TGI", "setting": "TK-10 renal", "value": "> 100", "unit": "µM"},
      {"measurement": "TGI", "setting": "OVCAR-3 ovarian", "value": "> 100", "unit": "µM"},
      {"measurement": "TGI", "setting": "SF-539 CNS", "value": "> 100", "unit": "µM"},
      {"measurement": "TGI", "setting": "LOX IMVI melanoma", "value": "> 100", "unit": "µM"},
      {"measurement": "TGI", "setting": "COLO 205 colon", "value": "> 100", "unit": "µM"},
      {"measurement": "TGI", "setting": "SK-MEL-5 melanoma", "value": 21.7, "unit": "µM"},
      {"measurement": "TGI", "setting": "HCT-15 colon", "value": "> 100", "unit": "µM"},
      {"measurement": "TGI", "setting": "SN12C renal", "value": "> 100", "unit": "µM"},
      {"measurement": "TGI", "setting": "KM12 colon", "value": "> 100", "unit": "µM"},
      {"measurement": "TGI", "setting": "UO-31 renal", "value": "> 100", "unit": "µM"},
      {"measurement": "TGI", "setting": "UACC-257 melanoma", "value": "> 100", "unit": "µM"},
      {"measurement": "TGI", "setting": "NCI-H460 lung", "value": "> 100", "unit": "µM"},
      {"measurement": "TGI", "setting": "SR leukemia", "value": "> 100", "unit": "µM"}
    ]},
    {"smiles": "O=C1CCC2COc3ccc(O)c1c32", "note": "(stereo unspecified)", "values": [
      {"measurement": "TGI", "setting": "SK-MEL-28 melanoma", "value": "> 100", "unit": "µM"},
      {"measurement": "TGI", "setting": "M19-MEL melanoma", "value": "> 100", "unit": "µM"},
      {"measurement": "TGI", "setting": "TK-10 renal", "value": "> 100", "unit": "µM"},
      {"measurement": "TGI", "setting": "HOP-18 NSCLC", "value": "> 100", "unit": "µM"},
      {"measurement": "TGI", "setting": "OVCAR-3 ovarian", "value": "> 100", "unit": "µM"},
      {"measurement": "TGI", "setting": "XF 498 CNS", "value": "> 100", "unit": "µM"},
      {"measurement": "TGI", "setting": "SNB-78 CNS", "value": "> 100", "unit": "µM"},
      {"measurement": "TGI", "setting": "SF-539 CNS", "value": "> 100", "unit": "µM"},
      {"measurement": "TGI", "setting": "LOX IMVI melanoma", "value": "> 100", "unit": "µM"},
      {"measurement": "TGI", "setting": "COLO 205 colon", "value": "> 100", "unit": "µM"},
      {"measurement": "TGI", "setting": "SK-MEL-5 melanoma", "value": "> 100", "unit": "µM"},
      {"measurement": "TGI", "setting": "DMS 273 small cell lung", "value": "> 100", "unit": "µM"},
      {"measurement": "TGI", "setting": "HCT-15 colon", "value": "> 100", "unit": "µM"},
      {"measurement": "TGI", "setting": "SN12C renal", "value": "> 100", "unit": "µM"},
      {"measurement": "TGI", "setting": "UACC-257 melanoma", "value": "> 100", "unit": "µM"},
      {"measurement": "TGI", "setting": "NCI-H460 lung", "value": "> 100", "unit": "µM"}
    ]},
    {"smiles": "COc1nc(NC2OC(CO)C(O)C(O)C2O)c(N)c(=O)[nH]1", "note": "(stereo unspecified)", "values": [
      {"measurement": "TGI", "setting": "SK-MEL-28 melanoma", "value": "> 100", "unit": "µM"},
      {"measurement": "TGI", "setting": "M19-MEL melanoma", "value": "> 100", "unit": "µM"},
      {"measurement": "TGI", "setting": "HOP-18 NSCLC", "value": "> 100", "unit": "µM"},
      {"measurement": "TGI", "setting": "OVCAR-3 ovarian", "value": "> 100", "unit": "µM"},
      {"measurement": "TGI", "setting": "XF 498 CNS", "value": "> 100", "unit": "µM"},
      {"measurement": "TGI", "setting": "SNB-78 CNS", "value": "> 100", "unit": "µM"},
      {"measurement": "TGI", "setting": "SF-539 CNS", "value": "> 100", "unit": "µM"},
      {"measurement": "TGI", "setting": "LOX IMVI melanoma", "value": "> 100", "unit": "µM"},
      {"measurement": "TGI", "setting": "COLO 205 colon", "value": "> 100", "unit": "µM"},
      {"measurement": "TGI", "setting": "SK-MEL-5 melanoma", "value": "> 100", "unit": "µM"},
      {"measurement": "TGI", "setting": "DMS 273 small cell lung", "value": "> 100", "unit": "µM"},
      {"measurement": "TGI", "setting": "HCC-2998 colon", "value": "> 100", "unit": "µM"},
      {"measurement": "TGI", "setting": "HCT-15 colon", "value": "> 100", "unit": "µM"},
      {"measurement": "TGI", "setting": "SN12C renal", "value": "> 100", "unit": "µM"},
      {"measurement": "TGI", "setting": "KM12 colon", "value": "> 100", "unit": "µM"},
      {"measurement": "TGI", "setting": "UO-31 renal", "value": "> 100", "unit": "µM"},
      {"measurement": "TGI", "setting": "UACC-257 melanoma", "value": "> 100", "unit": "µM"},
      {"measurement": "TGI", "setting": "NCI-H460 lung", "value": "> 100", "unit": "µM"}
    ]}
  ]
}
